Laboratory results: patent US20070129330A1, “1,3-Diaza-dibenzo[e,h]azulenes for the treatment of central nervous system diseases and disorders” (Pliva-Istrazivacki Institut d.o.o., priority 2003, published 2007)

Tests used:
[1] = molecular target: T1, 5-HT2A receptor (Homo sapiens, UniProt P28223); test: radioligand binding assay for 5-HT2A receptor ([3H]-ketanserin competitive binding); settings: human cortex or recombinant 5-HT2A receptor expressed in CHO-K1 cells; for IC50: read-out: binding affinity to 5-HT2A serotonin receptor expressed as IC50 value; for Ki: read-out: binding affinity to 5-HT2A serotonin receptor, Ki value
T1 construct: expressed in transfected cells; host or cells: CHO-K1 (alternatively human cortex tissue)
T1 sequence (P28223 whole entry): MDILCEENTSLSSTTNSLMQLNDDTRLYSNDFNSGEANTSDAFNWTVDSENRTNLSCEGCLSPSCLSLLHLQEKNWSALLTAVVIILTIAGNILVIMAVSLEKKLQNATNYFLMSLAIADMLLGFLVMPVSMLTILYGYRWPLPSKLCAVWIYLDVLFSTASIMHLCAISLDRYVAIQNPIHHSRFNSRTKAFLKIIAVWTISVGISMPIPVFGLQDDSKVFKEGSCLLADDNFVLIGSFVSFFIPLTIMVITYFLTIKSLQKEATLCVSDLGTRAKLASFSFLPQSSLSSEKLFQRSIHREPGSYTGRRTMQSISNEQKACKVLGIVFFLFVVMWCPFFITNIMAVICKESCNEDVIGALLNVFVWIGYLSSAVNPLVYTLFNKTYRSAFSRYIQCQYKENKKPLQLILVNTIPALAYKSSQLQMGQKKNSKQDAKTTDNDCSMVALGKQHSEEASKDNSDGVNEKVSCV
Description: (§1) The effect of the compounds of the present invention on the neurochemical steady state was determined by in vitro investigations such as a radionuclide-marked radioligand binding assay for 5-HT2A (Bonhaus D. W. Br. J. Pharmacol. 1995, 115:622; Saucier C. J. Neurochem. 1997, 68:1998) and 5-HT2C receptors (Wolf W.A. J. Neurochem. 1997, 69:1449), in vitro binding assay for the σ1 receptor (Thomson W. and Donn R. Arthritis Res. 2002, 4: 302-306) and by in vivo investigations in a tail suspension test (Vogel H. G. and Vogel W. H. Drug Discovery and Evaluation Pharmacological Assays, Springer 1997, 304), in amphetamine-induced hyperlocomotion in mice (Millan M. J. et al, 1998 J. Pharmacol. Exp. Ther. 287: 167-186), in a forced swim test in mice (Porsolt R. D. et al. Arch. Int. Pharmacodyn. 1977, 229:327-336), in meta-chlorophenyl piperazine (m-CPP) test on rats (Drug Dev. Res. 1989, 18:119-144), and in apomorphine, tryptamine and norepinephrine (ATN) test in rats (Arch. Int. Pharmacodyn. 1977, 227:238-253).
(§2) A small concentration of a radioligand having a great affinity for binding to a receptor was incubated with a tissue sample enriched with a certain receptor (1-5 mg of tissue) in a buffered medium (0.2-5 mL). Recombinant human HT2A and HT2C receptors were expressed in CHO-K1 or COS-7 cells and were also used for competitive binding. During incubation the radioligand bound to the receptor. When a binding balance was achieved, the receptors to which the radioligand was bound were separated from those to which said ligand was not bound, and the radioactivity of the receptor/radioligand complex was measured. The interaction of the tested compounds with receptors was tested in competitive binding experiments. Various concentrations of tested compounds were added to the incubation mixture containing a prepared tissue enriched with corresponding receptors and the radioligand. The radioligand binding was inhibited by the test compounds proportionally to the affinity of a certain compound for the receptor and to the concentration of the compound.
(§3) The radioligand used for the determination of binding to 5-HT2A receptor was [^3H]-ketanserin and the tissue used was human cortex or recombinant 5-HT2A receptor expressed in CHO-K1 cells. The radioligand used for the determination of binding to 5-HT2C receptor was [^3H]-mesulergine and the tissue used was choroid plexus or recombinant 5-HT2C receptor expressed in CHO-K1 cells.
(§4) It is anticipated that similar results will be observed for other compounds of the invention.

[2] = molecular target: T2, 5-HT2C receptor (Homo sapiens, UniProt P28335); test: radioligand binding assay for 5-HT2C receptor ([3H]-mesulergine competitive binding); settings: choroid plexus or recombinant 5-HT2C receptor expressed in CHO-K1 cells; for IC50: read-out: binding affinity to 5-HT2C serotonin receptor expressed as IC50 value; for Ki: read-out: binding affinity to 5-HT2C serotonin receptor, Ki value
T2 construct: expressed in transfected cells; host or cells: CHO-K1 (alternatively choroid plexus tissue)
T2 sequence (P28335 33-458): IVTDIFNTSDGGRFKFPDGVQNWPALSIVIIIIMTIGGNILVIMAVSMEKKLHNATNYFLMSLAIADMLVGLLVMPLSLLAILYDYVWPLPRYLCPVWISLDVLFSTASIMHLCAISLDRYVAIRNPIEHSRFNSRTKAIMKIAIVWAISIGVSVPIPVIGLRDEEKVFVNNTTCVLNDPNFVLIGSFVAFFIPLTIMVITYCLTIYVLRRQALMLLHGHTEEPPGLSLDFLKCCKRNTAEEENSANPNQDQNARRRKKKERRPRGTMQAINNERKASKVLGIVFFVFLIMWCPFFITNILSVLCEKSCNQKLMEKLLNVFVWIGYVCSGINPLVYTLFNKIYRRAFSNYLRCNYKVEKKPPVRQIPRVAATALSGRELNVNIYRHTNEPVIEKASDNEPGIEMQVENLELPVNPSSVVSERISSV
Description: as §1, §2, §3, §4

IC50 [1]	Ki [1]	IC50 [2]	Ki [2]	SMILES
< 200 nM	< 100 nM	< 200 nM	< 100 nM	Clc1ccc2c(c1)-c1[nH]cnc1-c1ccccc1O2 [11chloro-1H-8-oxa-1,3-diaza-dibenzo[e,h]azulene]
< 200 nM	< 100 nM	< 200 nM	< 100 nM	CN(C)CCCOCc1nc2c([nH]1)-c1cc(Cl)ccc1Sc1ccccc1-2 [[3-(11-chloro-1H-8-thia-1,3-diaza-dibenzo[e,h]azulen-2-ylmethoxy)-propyl]-dimethyl-amine]
< 200 nM	< 100 nM	< 200 nM	< 100 nM	CN(C)CCOCc1nc2c(n1C)-c1ccccc1Sc1ccccc1-2 [dimethyl-[2-(1-methyl-1H-8-thia-1,3-diaza-dibenzo[e,h]azulen-2-ylmethoxy)-ethyl]-amine]
< 200 nM	< 100 nM	< 200 nM	< 100 nM	CN(C)CCCOc1ccccc1-c1nc2c([nH]1)-c1ccccc1Sc1ccccc1-2 [dimethyl-{3-[2-(1H-8-thia-1,3-diaza-dibenzo[e,h]azulen-2-yl)-phenoxy]-propyl}-amine]
